Laboratory results published in publication PMC8434012 (Molecules, 2021).
Where a name gives a salt, the structure may show the parent alone.

Legend:
[1] = tested on: SH-SY5Y neuroblastoma cells; assay: MTT cell viability assay, Aβ(25–35)-induced neurotoxicity; type: cell-based; conditions: Aβ(25–35) 25 μM
Protocol: Cells were cultured in MEM supplemented with 10% heat-inactivated defined FBS, and an antibiotic mixture of 100 units/mL of penicillin and 100 μg/mL streptomycin, and grown at 37 °C in a humid atmosphere with 5% CO2.
Following the treatment, cell viability was assessed using MTT reduction assay. After adding 10 μL/well of MTT (5 mg/L) and incubating for 4 h, the supernatants were removed and 100 μL of DMSO was added in wells. After 1 h incubation at room temperature in the microshaker, the absorbance of the sample was measured by the microplate spectrophotometer reader (Molecular Devices, Sunnyvale, CA, USA) at 570 nm. The cell viability rate (%) was calculated as the absorbance of treated cells divided by that of control cells. The viability of the control cells was defined as 100%. Three independent experiments were performed in triplicate.

[2] = rat, in vivo, po; cited from earlier work

Molecule	reduction of cell viability compared to vehicle treatment [1] [%]	donepezil excreted into urine [2] [%]
Aβ(25–35): β-amyloid fragment used to induce neurotoxicity in SH-SY5Y cells (GSNKGAIIGLM; Amyloid-beta protein 42; UniProt P05067 696-706, looked up, fragment)	36.0	–
COc1cc2c(cc1OC)C(=O)C(CC1CCN(Cc3ccccc3)CC1)C2 (centres unmarked) [DNP, Donepezil hydrochloride]	–	1.52
